Two compounds from PMC11638965, “Leveraging Dual-Ligase Recruitment to Enhance Protein Degradation via a Heterotrivalent Proteolysis Targeting Chimera” (Journal of the American Chemical Society, 2024) can be followed below.

Assay in all cases: Western blot dose-response degradation in homozygous HiBiT-BromoTag-BRD4 HEK293 cells
In general terms: A western blot detects proteins with antibodies after separation by electrophoresis.

The test system of assay [1] is BromoTag-BRD4 (BRD4^Long). Format: cell-based, human. To be noted: for pDC50 BRD4Long: homozygous BromoTag-BRD4 HEK293 cells (Table S8). How it is done:
(§1) Cell Culture HEK293 cells were obtained from ATCC. HEK293 was cultured in DMEM supplemented with 10% (v/v) fetal bovine serum (FBS), 1% […] and 1% (v/v) penicillin/streptomycin (pen/strep) at 37 °C, 5% CO2, and 95% humidity.
(§2) To perform the single gRNA Cas9 CRISPR KI of BromoTag into BRD4 in HEK293. HEK293 cells were plated at a density of 5 × 10^5 cells into individual wells of a six-well plate in 1 mL of DMEM and left overnight to adhere to the plate. The cells were subsequently transfected the following day using GeneJuice lipofectamine reagent simultaneously with a custom donor vector pMK-RQ containing 500bp BRD4 homology arms on either side of an eGFP-IRES-HiBiT-BromoTag and two individual pBABED vector harboring U6-sgRNA and puromycin expression cassettes containing two BRD4 targeting gRNA sequences: […] and […]. The construction of these plasmids was performed by Thomas Macartney of the MRC-PPU CRISPR services. The following day cells were washed with PBS before fresh DMEM media was applied cells were left to recover in DMEM for a further 4 days. Cells were subsequently FACS sorted for GFP expression and expanded from single cells. HEK293 clones were validated for eGFP-IRES-HiBIT-BromoTag-BRD4 integration via WB, junction PCR and sequencing.
(§3) Dose–response degradation assay 97 of was performed on the genotype verified eGFP-IRES-HiBIT-BromoTag-BRD4 homozygous HEK293 cell lines. The cells were plated at a density of 5 × 10^5 cells per well of a six well plate a day prior to initiation of the experiment. 97 was dissolved into a 10 mM concentrated stock solution in DMSO from which 97 was further diluted to a working concentration range of 10 μM to 10 pM in DMEM and was subsequently added to cells. Additional controls including, vehicle, AGB1 (1 μM) and cis-AGB1 (1 μM) were similarly added to cells alongside 97 treatments. Cells were left to incubate with compound for 4 h at 37 °C, 5% CO2, and 95% humidity. Cells were then subsequently washed twice with PBS before being harvested in RIPA buffer supplemented with protease inhibitor cocktail and Benzonase Nuclease before being store at −20 °C.
Total protein quantity was determined using the BCA protein assay. Protein concentration was determined using the BCA assay. Samples were then prepared in LDS buffer and subsequently loaded onto NuPAGE 4–12% Bis-Tris Midi gels, followed by the transfer of the proteins onto nitrocellulose membranes. The membranes were blocked for 1 h prior to incubation with the primary antibodies using 5% Milk TBST. […] All Western blots were analyzed for band intensities using Image Lab (Bio-Rad). The data extracted from these blots were then plotted and analyzed using Prism (v. 10.2.2, GraphPad). […]

In a further assay the target is T1, BRD2 (Homo sapiens, UniProt P25440).
T1 construct: HiBiT, is appended to the N-terminus of endogenous BRD2, BRD3, and BRD4; endogenous in cells
Format: cell-based. How it is done:
as §1, §2, §3
(§4) Total protein quantity was determined using the BCA protein assay. Protein concentration was determined using the BCA assay. Samples were then prepared in LDS buffer and subsequently loaded onto NuPAGE 4–12% Bis-Tris Midi gels, followed by the transfer of the proteins onto nitrocellulose membranes. The membranes were blocked for 1 h prior to incubation with the primary antibodies using 5% Milk TBST. Membranes were incubated at 4 °C in either BRD4(Ab128874), BRD3(Ab50818) or BRD2(Ab139690) primary antibody overnight. Following overnight incubation, the membranes were incubated with complementary IRDye 800CW secondary antibodies and a hFAB Rhodamine Anti-Tubulin Primary Antibody (loading control) for 1 h and then imaged with a Bio-Rad imager. All Western blots were analyzed for band intensities using Image Lab (Bio-Rad). The data extracted from these blots were then plotted and analyzed using Prism (v. 10.2.2, GraphPad). All Western blotting figures were developed in Adobe Illustrator.

The target in the next assay is T2, BRD3 (Homo sapiens, UniProt Q15059).
T2 construct: HiBiT, is appended to the N-terminus of endogenous BRD2, BRD3, and BRD4; endogenous in cells
Format: cell-based. The protocol:
as §1, §2, §3, §4

Assay [2] deals with T3, BromoTag-BRD4 (BRD4^Short) (Homo sapiens, UniProt O60885, L387A).
T3 construct: homozygous endogenous HiBiT-BromoTag-BRD4 HEK293 cell line; endogenous in cells; host or cells: HEK293, homozygous CRISPR knock-in eGFP-IRES-HiBiT-BromoTag-BRD4
Format: cell-based. The protocol: as §1, §2, §3, §4

In a further assay the target is CRBN (Homo sapiens, UniProt Q96SW2). Format: cell-based. More on the design: Western blot data for BET, CRBN and VHL protein levels; endogenous in cells; host or cells: HEK293 (ATCC). How it is done:
as §1, §2
Dose–response degradation assay 97 of was performed on the genotype verified eGFP-IRES-HiBIT-BromoTag-BRD4 homozygous HEK293 cell lines. The cells were plated at a density of 5 × 10^5 cells per well of a six well plate a day prior to initiation of the experiment. 97 was dissolved into a 10 mM concentrated stock solution in DMSO from which 97 was further diluted to a working concentration range of 10 μM to 10 pM in DMEM and was subsequently added to cells. […]
Total protein quantity was determined using the BCA protein assay. Protein concentration was determined using the BCA assay. […] All Western blots were analyzed for band intensities using Image Lab (Bio-Rad). The data extracted from these blots were then plotted and analyzed using Prism (v. 10.2.2, GraphPad). […]

Where [3] appears, read: HiBiT-BromoTag-BRD4 HEK293, 4 hours (Figure 12).
Where [4] appears, read: homozygous BromoTag-BRD4 HEK293 cells (Table S8).
[5] abbreviates: HiBiT-BromoTag-BRD4 HEK293, 4 hours, n = 1 (Figure 12).

The term DC50 denotes the midpoint of the concentration-degradation curve. As a reminder, the Dmax is the largest share of the target that was removed. Lower therefore signals shallow degradation.

The structures appear in SMILES notation.

T2 sequence (Q15059 whole entry): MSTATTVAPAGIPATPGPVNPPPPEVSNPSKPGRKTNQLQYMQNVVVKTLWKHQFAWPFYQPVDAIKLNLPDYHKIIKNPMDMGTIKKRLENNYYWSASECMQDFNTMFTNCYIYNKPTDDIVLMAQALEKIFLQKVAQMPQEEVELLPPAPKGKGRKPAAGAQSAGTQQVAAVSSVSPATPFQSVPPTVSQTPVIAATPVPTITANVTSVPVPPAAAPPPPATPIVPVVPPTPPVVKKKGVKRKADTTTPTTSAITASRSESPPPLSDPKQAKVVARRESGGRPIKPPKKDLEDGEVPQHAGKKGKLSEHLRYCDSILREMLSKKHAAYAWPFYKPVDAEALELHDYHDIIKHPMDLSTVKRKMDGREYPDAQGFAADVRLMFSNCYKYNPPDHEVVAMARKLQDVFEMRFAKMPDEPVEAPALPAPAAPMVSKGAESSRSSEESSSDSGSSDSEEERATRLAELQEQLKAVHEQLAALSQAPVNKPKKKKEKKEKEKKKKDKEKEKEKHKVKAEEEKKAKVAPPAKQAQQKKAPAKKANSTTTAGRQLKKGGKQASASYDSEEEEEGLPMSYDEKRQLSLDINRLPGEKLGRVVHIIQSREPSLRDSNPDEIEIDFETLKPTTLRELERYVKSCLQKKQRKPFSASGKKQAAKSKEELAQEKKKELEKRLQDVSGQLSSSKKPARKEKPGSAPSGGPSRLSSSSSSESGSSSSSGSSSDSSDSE
CRBN, sequence (Q96SW2 whole entry): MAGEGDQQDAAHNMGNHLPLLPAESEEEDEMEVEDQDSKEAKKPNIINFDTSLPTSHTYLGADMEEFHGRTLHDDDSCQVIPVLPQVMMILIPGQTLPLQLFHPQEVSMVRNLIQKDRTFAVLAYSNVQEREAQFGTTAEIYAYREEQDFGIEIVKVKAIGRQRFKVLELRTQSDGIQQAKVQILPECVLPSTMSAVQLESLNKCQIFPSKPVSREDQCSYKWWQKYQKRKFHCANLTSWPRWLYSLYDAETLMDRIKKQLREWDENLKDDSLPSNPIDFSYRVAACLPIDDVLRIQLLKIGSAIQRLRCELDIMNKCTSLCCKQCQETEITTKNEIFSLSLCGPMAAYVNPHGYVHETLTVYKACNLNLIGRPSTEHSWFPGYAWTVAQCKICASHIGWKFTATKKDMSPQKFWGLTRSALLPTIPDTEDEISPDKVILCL
T1 sequence (P25440 whole entry): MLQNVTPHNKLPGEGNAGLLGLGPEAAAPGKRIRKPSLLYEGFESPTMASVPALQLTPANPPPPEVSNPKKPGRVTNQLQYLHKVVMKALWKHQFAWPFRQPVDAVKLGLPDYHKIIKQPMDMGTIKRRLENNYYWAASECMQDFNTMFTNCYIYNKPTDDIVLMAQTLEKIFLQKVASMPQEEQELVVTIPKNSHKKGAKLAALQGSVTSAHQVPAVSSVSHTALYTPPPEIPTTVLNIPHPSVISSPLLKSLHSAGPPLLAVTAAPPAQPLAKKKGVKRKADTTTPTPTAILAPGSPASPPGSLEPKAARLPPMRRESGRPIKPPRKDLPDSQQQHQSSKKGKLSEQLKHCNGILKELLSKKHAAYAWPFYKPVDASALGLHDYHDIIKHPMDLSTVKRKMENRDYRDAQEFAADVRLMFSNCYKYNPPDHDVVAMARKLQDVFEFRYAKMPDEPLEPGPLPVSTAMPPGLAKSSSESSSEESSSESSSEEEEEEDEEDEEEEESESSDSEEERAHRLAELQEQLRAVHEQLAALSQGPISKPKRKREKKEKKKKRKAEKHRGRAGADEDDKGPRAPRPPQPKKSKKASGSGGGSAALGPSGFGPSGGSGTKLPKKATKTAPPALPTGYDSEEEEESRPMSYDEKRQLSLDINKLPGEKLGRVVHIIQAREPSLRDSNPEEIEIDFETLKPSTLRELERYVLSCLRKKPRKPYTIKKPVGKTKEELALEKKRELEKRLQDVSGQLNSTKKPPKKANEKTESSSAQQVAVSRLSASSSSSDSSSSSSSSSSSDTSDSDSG

Regarding `CC[C@@H](C(=O)OCCOCCOCCOCC(C)(COCCOCCOCCNc1cc2c(cc1F)C(=O)N(C1CCC(=O)NC1=O)C2=O)COCC(=O)N[C@H](C(=O)N1C[C@H](O)C[C@H]1C(=O)N[C@@H](C)c1ccc(-c2scnc2C)cc1)C(C)(C)C)[C@@H]1N=C(c2ccc(Cl)cc2)c2c(sc(C)c2C)-n2c(C)nnc21` (mixture of isomers) [AB3145 (97), (17S)-11-((2-(2-(2-((2-(2,6-dioxopiperidin-3-yl)-6-fluoro-1,3-dioxoisoindolin-5-yl)amino)ethoxy)ethoxy)ethoxy)methyl)-17-((2S,4R)-4-hydroxy-2-(((S)-1-(4-(4-methylthiazol-5-yl)phenyl)ethyl)carbamoyl)pyrrolidine-1-carbonyl)-11,18,18-trimethyl-15-oxo-3,6,9,13-tetraoxa-16-azanonadecyl (2R)-2-((S)-4-(4-chlorophenyl)-2,3,9-trimethyl-6H-thieno[3,2-f][1,2,4]triazolo[4,3-a][1,4]diazepin-6-yl)butanoate], the DC50 in assay [1] (setting [3]) came out at 0.12 nM; on BRD2 (setting [3]), 770 nM; at BRD3 (setting [3]), 33 nM; in assay [2] (setting [3]), 0.14 nM; at CRBN (setting [5]) it was 2.1 nM. Also, in assay [1] (setting [3]), the “Dmax BRD4^Long” value worked out at 85%. In addition, the “pDC50 BRD4Long” value in assay [1] was found to be 9.9 ± 0.6. At BRD2 (DC50 ratio), the “selectivity window of BromoTag-BRD4 degradation over BRD2” value turned out to be 6000 fold. Besides, the Dmax at BRD2 (setting [3]) is 50%; at BRD2 (setting [4]) it was 56%; on BRD3 (setting [3]) it was 79%; in assay [2] (setting [3]), 86%; at CRBN (setting [5]) it was 77%. In addition, at BRD3 (DC50 ratio), the “selectivity window of BromoTag-BRD4 degradation over BRD3” value came out at 250 fold. In addition, at BRD3 (setting [4]), the “pDC50 BRD3” value is on record as 7.5 ± 0.4. In assay [2] (setting [4]), the “pDC50 BRD4Short” value is on record as 9.9 ± 0.1. Also, at CRBN (DC50 2.1 nM vs 75 nM), the “fold more potent degradation of CRBN than 27” value is recorded as roughly 35 fold.
For the compound `CC[C@@H](C(=O)OCCOCCOCCOCC(=O)N[C@H](C(=O)N1C[C@H](O)C[C@H]1C(=O)NCc1ccc(-c2scnc2C)cc1)C(C)(C)C)[C@@H]1N=C(c2ccc(Cl)cc2)c2c(sc(C)c2C)-n2c(C)nnc21` [AGB1, reference compound], in assay [1], the “pDC50 BRD4Long” value was found to be 8.0 ± 0.2. For the same compound, in assay [2] (setting [4]), the “Dmax % BRD4Short” value was determined as 11% and the “pDC50 BRD4Short” value was found to be 8.6 ± 0.1.
